Experimental findings from publication PMC9108036 (Biomedicine & Pharmacotherapy, 2022) are described below.

By viability is commonly meant a read-out of living cells in per cent, often relative to untreated cells.

Test system in one series: not listed separately
Kind of series: in vitro. It counts as cell-based. The settings on record: human.
Take `CCCCC[C@H](O)/C=C/[C@H]1[C@H](O)CC(=O)[C@@H]1CCCCCCC(=O)O` [Alprostadil]: the viability at 10 µM came out at 100 ± 2.9%.
The same measure, in the same setting: in the case of `CN(C)CCCN1c2ccccc2Sc2ccc(Cl)cc21` [Chlorpromazine] it was 88.6 ± 4.3%; in that of `Nc1nc(Cl)nc2c1ncn2[C@H]1C[C@H](O)[C@@H](CO)O1` [Cladribine], 108 ± 2.7%.
Consider `CC(=O)O[C@@]12CO[C@@H]1C[C@H](O)[C@@]1(C)C(=O)[C@H](O)C3=C(C)[C@@H](OC(=O)[C@H](O)[C@@H](NC(=O)OC(C)(C)C)c4ccccc4)C[C@@](O)([C@@H](OC(=O)c4ccccc4)[C@H]21)C3(C)C` [Docetaxel], for which the viability at 10 µM came to 80.8 ± 3%.
Same read-out and setting: in the case of `Clc1ccc(COC(Cn2ccnc2)c2ccc(Cl)cc2Cl)cc1` (centres unmarked) [Econazole] it was 88.2 ± 1.8%; in that of `O=c1[nH]cc(F)c(=O)[nH]1` [Fluorouracil], 97 ± 1.7%.

The next series relates to Omicron SARS-CoV-2 lentiviral pseudovirus.
Assay: not given
The class given is cell-based.
Details: not given
As for `CN(C)CCCN1c2ccccc2CCc2ccc(Cl)cc21` [Clomipramine], the “inhibition of Omicron pseudovirus entry (in words)” value was “enhanced inhibitory effects”.
The same measure, in the same setting: the value for `COC(=O)C1=C(C)NC(C)=C(C(=O)OCCCN2CCC(c3ccccc3)(c3ccccc3)CC2)[C@@H]1c1cccc([N+](=O)[O-])c1` [Dexniguldipine] was “strong inhibition”; that for `CSc1ccc2c(c1)N(CCC1CCCCN1C)c1ccccc1S2` (centres unmarked) [Thioridazine] was “enhanced inhibitory effects”.

The same series, now with this note: Omicron pseudovirus, CaCo2 cells.
In the case of `CN(C)CCCN1c2ccccc2Sc2ccc(Cl)cc21` [Chlorpromazine], the “inhibition of Omicron pseudovirus entry (in words)” value is “enhanced inhibitory effects”.
On the same count and under the same terms, in the case of `CN1CCN(CCCN2c3ccccc3Sc3ccc(C(F)(F)F)cc32)CC1` [Trifluoperazine] it was “enhanced inhibitory effects”.
